SMILES strings stand for the structures. Where two headings read alike, the source gives them in different places.

One experiment concerns the target TDP1 (Homo sapiens (Human), UniProt Q9NUW8). Kind of experiment: TDP1 gel-based in vitro fluorescence assay. Format: biochemical. The protocol:
(§1) (TDP assay buffer: 50 mM Tris HCl, pH 7.5, 80 mM KCl, 2 mM EDTA, 1 mM DTT, 40 μg/ml BSA and 0.01% Tween-20. TDP1 (20 mg/mL in 25 mM Tris-HCl pH 7.2, 150 mM NaCl, 2 mM tris(2-carboxyethyl)phosphine) with 2 mL of well solution composed of 0.1 M MOPS/HEPES pH 7.5, 10% (w/v) PEG 8000, 20% (v/v) ethylene glycol, 0.03 M sodium fluoride, 0.03 M sodium bromide, 0.03 M sodium iodide, 0.03 M sodium bromide and sealed over […] well solution. AF647 labelling buffer: Tris-HCl (pH 7.2, 25 mM), NaCl (150 mM), and tris(2-carboxyethyl)phosphine hydrochloride (TCEP, 2 mM).)
(§2) (DNA only: Buffer+DMSO. DMSO only: Enzyme+DMSO. Drug: Enzyme+Drug, 25° C., 10 min+DNA, reaction at 25° C., 15 min.)
Gel images were scanned using a Typhoon FLA 9500 scanner (GE Healthcare) and densitometric analyses were performed using the ImageQuant software (GE Healthcare). The IC50 of TDP1 inhibitors was calculated by comparing the percentage of cleavage product (5′Cy5-[…]-p-3′) to DMSO control.

In a further experiment the target is TDP2 (Homo sapiens (Human), UniProt O95551). Kind of experiment: gel-based TDP2 fluorescence assay in vitro. Format: biochemical. Conditions: read-out: TDP2 IC50. The protocol: as §1, §2
Sequence of TDP2 (O95551 whole entry, species assumed): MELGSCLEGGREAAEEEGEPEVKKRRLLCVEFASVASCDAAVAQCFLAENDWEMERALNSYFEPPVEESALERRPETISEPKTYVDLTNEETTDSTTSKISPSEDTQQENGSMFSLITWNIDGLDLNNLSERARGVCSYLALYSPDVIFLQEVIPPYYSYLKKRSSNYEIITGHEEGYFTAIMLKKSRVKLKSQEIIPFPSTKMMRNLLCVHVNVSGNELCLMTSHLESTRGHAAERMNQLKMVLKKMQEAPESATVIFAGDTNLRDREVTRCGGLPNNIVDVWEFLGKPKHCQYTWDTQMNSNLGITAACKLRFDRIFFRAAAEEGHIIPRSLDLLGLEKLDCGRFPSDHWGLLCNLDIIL
Where [1] appears, read: Table 2, imidazo[1,2-a]pyrazin-3-amine core, read-out: IC50.
The mark [2] stands for this setting: Table 10, PROTACs, read-out: TDP1 IC50.
Setting [3] is: Table 1, imidazo[1,2-a]pyridin-3-amines, read-out: IC50.
[4] abbreviates: Table 7, HPLC-purified oxime leads.

Sequence of TDP1 (Q9NUW8 whole entry): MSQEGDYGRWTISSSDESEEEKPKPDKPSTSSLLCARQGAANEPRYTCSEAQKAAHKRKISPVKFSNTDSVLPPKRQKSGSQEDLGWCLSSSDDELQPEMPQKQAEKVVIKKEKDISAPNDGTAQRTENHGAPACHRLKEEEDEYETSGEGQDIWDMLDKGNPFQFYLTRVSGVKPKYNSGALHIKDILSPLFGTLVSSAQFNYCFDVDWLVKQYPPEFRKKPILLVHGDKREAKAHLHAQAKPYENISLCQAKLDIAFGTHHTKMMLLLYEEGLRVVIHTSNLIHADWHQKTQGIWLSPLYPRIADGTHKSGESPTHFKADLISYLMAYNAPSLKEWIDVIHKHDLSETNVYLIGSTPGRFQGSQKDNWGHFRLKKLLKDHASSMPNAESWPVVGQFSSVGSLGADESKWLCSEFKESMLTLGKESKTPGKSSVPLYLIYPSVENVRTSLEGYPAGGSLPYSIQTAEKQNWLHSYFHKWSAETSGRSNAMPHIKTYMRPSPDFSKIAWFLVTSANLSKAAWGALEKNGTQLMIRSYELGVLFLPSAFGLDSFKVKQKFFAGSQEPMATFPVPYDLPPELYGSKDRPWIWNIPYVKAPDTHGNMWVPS

As to `O=C(O)c1ccc(Nc2c(-c3ccc(O)cc3)nc3cnccn23)cc1` [Compound 7e], the IC50 (in general, the concentration that inhibits the measured activity by half) on TDP1 (setting [1]) came out at 20 µM.

Regarding `O=C(O)c1ccc(Nc2c(-c3cccc(OS(=O)(=O)F)c3)nc3cc(-c4ccccc4)ccn23)cc1` [XZ729, 4-((2-(3-((Fluorosulfonyl)oxy)phenyl)-7-phenylimidazo[1,2-a]pyridin-3-yl)amino)benzoic acid], the IC50 was more than 100 µM on TDP1 (Table 9, fluorosulfates and sulfonyl fluorides, read-out: TDP1 IC50); more than 100 µM at TDP2 (Table 9, fluorosulfates and sulfonyl fluorides). For `O=C(O)c1cccc(Nc2c(-c3ccccc3O)nc3cnccn23)c1` [Compound 7m], at TDP1 (setting [1]), the IC50 is 370 µM. Same read-out and setting: under `CN(C)c1ccc(-c2nc3cnccn3c2Nc2ccc(C(=O)O)cc2)cc1` [Compound 7v] stands more than 1000 µM. As for `Cc1ncsc1-c1ccc(CNC(=O)[C@@H]2C[C@@H](O)CN2C(=O)[C@@H](NC(=O)COCCOCCOCCn2cc(-c3ccn4c(Nc5ccc(C(=O)O)cc5)c(-c5ccccc5)nc4c3)nn2)C(C)(C)C)cc1` [XZ683, 4-((7-(1-((S)-13-((2S,4R)-4-Hydroxy-2-((4-(4-methylthiazol-5-yl)benzyl)carbamoyl)pyrrolidine-1-carbonyl)-14,14-dimethyl-11-oxo-3,6,9-trioxa-12-azapentadecyl)-1H-1,2,3-triazol-4-yl)-2-phenylimidazo[1,2-a]pyridin-3-yl)amino)benzoic acid], the IC50 at TDP1 (setting [2]) is more than 100 µM; on TDP2 (Table 10, PROTACs) it was more than 100 µM.

With `O=C(O)c1ccc(-c2nc3ccccn3c2Nc2ccccc2)cc1` [Compound 8i, 4-(3-(Phenylamino)imidazo[1,2-a]pyridin-2-yl)benzoic acid], on TDP1 (setting [3]), the IC50 was 40.1 µM. `COC(=O)c1cccc(Nc2c(-c3ccccc3O)nc3cnccn23)c1` [Compound 7j]: the IC50 on TDP1 (setting [1]) was more than 1000 µM. For `O=C(COc1cccc2c1C(=O)N(C1CCC(=O)NC1=O)C2=O)NCCCCn1cc(-c2ccn3c(Nc4ccc(C(=O)O)cc4)c(-c4ccccc4)nc3c2)nn1` (centres unmarked) [XZ685, 4-((7-(1-(4-(2-((2-(2,6-dioxopiperidin-3-yl)-1,3-dioxoisoindolin-4-yl)oxy)acetamido)butyl)-1H-1,2,3-triazol-4-yl)-2-phenylimidazo[1,2-a]pyridin-3-yl)amino)benzoic acid], the concentration for half-maximal inhibition (IC50) on TDP1 (setting [2]) is more than 100 µM; at TDP2 (Table 10, PROTACs), more than 100 µM. In the case of `CN(C)c1ccc(-c2nc3cnccn3c2Nc2cccc(C(=O)O)c2)cc1` [Compound 7q], the IC50 at TDP1 (setting [1]) worked out at 2900 µM. As to `O=C(O)c1cccc(Nc2c(-c3cccc(O)c3)nc3cnccn23)c1` [Compound 7n], on TDP1 (setting [1]), the IC50 was 2050 µM. `O=C(O)c1ccc(Nc2c(-c3ccc(CO/N=C\c4ccc(-c5ccccc5)cc4)cc3)nc3cc(-c4ccccc4)ccn23)cc1` [XZ712, (Z)-4-((2-(4-(((([1,1′-Biphenyl]-4-ylmethylene)amino)oxy)methyl)phenyl)-7-phenylimidazo[1,2-a]pyridin-3-yl)amino)benzoic acid]: the “FC (fold change)” value at TDP1 (Table 7, ratio of IC50 TDP2 to TDP1) is reported as more than 2. Besides, the IC50 on TDP2 (setting [4]) is more than 100 µM. With `O=C(O)c1ccc(Nc2c(-c3ccccc3)nc3cnccn23)c(O)c1` [Compound 7f], the IC50 on TDP1 (setting [1]) is 18 µM. Take `O=C(O)c1cccc(Nc2c(-c3ccccc3)nc3cnccn23)c1` [Compound 71]: on TDP1 (setting [1]), the IC50 was more than 1000 µM. As for `COC(=O)c1ccccc1Nc1c(-c2ccccc2O)nc2cnccn12` [Compound 7k], on TDP1 (setting [1]), the IC50 is more than 1000 µM. With `CS(=O)(=O)c1ccc2nc(-c3ccc(-c4ccccc4)cc3)c(Nc3ccc(C(=O)O)cc3)n2c1` [Compound 8r, 4-((2-([1,1′-Biphenyl]-4-yl)-6-(methylsulfonyl)imidazo[1,2-a]pyridin-3-yl)amino)benzoic acid], on TDP1 (setting [3]), the IC50 was 9.95 µM. For `COc1ccc(-c2nc3cnccn3c2Nc2ccc(C(N)=O)cc2)cc1` [Compound 7c], at TDP1 (setting [1]), the IC50 was more than 1000 µM. As for `O=C(O)c1ccc2nc(-c3ccccc3)c(Nc3ccccc3)n2c1` [Compound 8k, 2-Phenyl-3-(phenylamino)imidazo[1,2-a]pyridine-6-carboxylic acid], at TDP1 (setting [3]), the IC50 turned out to be 2.4 µM. Turning to `CCOC(=O)c1ccc(Nc2c(-c3ccccc3O)nc3cnccn23)cc1` [Compound 7a], the IC50 at TDP1 (setting [1]) is more than 1000 µM. Regarding `O=C(O)c1ccc(Nc2c(-c3ccc(C(F)(F)F)cc3)nc3ccccn23)cc1` [Compound 8d, 4-((2-(4-(Trifluoromethyl)phenyl)imidazo[1,2-a]pyridin-3-yl)amino)benzoic acid], the IC50 on TDP1 (setting [3]) amounted to 4.2 µM. In the case of `O=C(O)c1ccc(Nc2c(-c3ccc(F)cc3)nc3cnccn23)cc1` [Compound 7′z, 4-((2-(4-Fluorophenyl)imidazo[1,2-a]pyrazin-3-yl)amino)benzoic acid], the IC50 at TDP1 (setting [1]) is more than 1000 µM. As to `O=C(O)c1ccc(Nc2c(-c3cccc(Cl)c3)nc3cnccn23)cc1` [Compound 7x], the IC50 on TDP1 (setting [1]) is more than 1000 µM. Regarding `Cc1ccc(-c2nc3cnccn3c2Nc2cccc(C(=O)O)c2)cc1` [Compound M8], the IC50 at TDP1 (Table 3, values in brackets (footnote vi), read-out: TDP1 IC50 (μM), separated data from previous experiments) came to 233 µM. In the case of `Cc1ccc(-c2nc3cnccn3c2Nc2ccc(C(N)=O)cc2)cc1` [Compound 7h], the IC50 on TDP1 (setting [1]) was more than 1000 µM. Consider `c1ccc(Nc2c(-c3ccccc3)nc3ccccn23)cc1` [Compound 6t, N,2-Diphenylimidazo[1,2-a]pyridin-3-amine], for which the IC50 on TDP1 (setting [3]) is more than 100 µM. As to `CCOC(=O)c1cccc(Nc2c(-c3ccc(C(=O)O)cc3)nc3cnccn23)c1` [Compound 7r, 4-(3-((3-(ethoxycarbonyl)phenyl)amino)imidazo[1,2-a]pyrazin-2-yl)benzoic acid], the IC50 at TDP1 (setting [1]) is more than 1000 µM. For `O=C(O)c1ccc(Nc2c(-c3ccc(OCc4ccccc4)cc3)nc3ccccn23)cc1` [Compound 8c, 4-((2-(4-(Benzyloxy)phenyl)imidazo[1,2-a]pyridin-3-yl)amino)benzoic acid], on TDP1 (setting [3]), the half-inhibitory concentration (IC50) was determined as 12.7 µM. Turning to `O=C(O)c1ccccc1Nc1c(-c2ccccc2O)nc2cnccn12` [Compound 7′s, 2-((2-(2-Hydroxyphenyl)imidazo[1,2-a]pyrazin-3-yl)amino)benzoic acid], the IC50 at TDP1 (setting [1]) was more than 1000 µM. With `O=C(O)c1ccc(Nc2c(-c3ccc(O)cc3)nc3ccccn23)cc1` [Compound 8f, 4-((2-(4-Hydroxyphenyl)imidazo[1,2-a]pyridin-3-yl)amino)benzoic acid], at TDP1 (setting [3]), the IC50 was more than 100 µM. On to `O=C(O)c1cccc(Nc2c(-c3ccc(N4CCOCC4)cc3)nc3cnccn23)c1` [Compound 7p], for which the IC50 at TDP1 (setting [1]) came to 942 µM.

Regarding `Cc1cncc(Oc2ccc(/C=N\OCc3ccc4nc(-c5ccccc5)c(Nc5ccc(C(=O)O)cc5)n4c3)cc2)n1` [XZ713, (Z)-4-((6-((((4-((6-Methylpyrazin-2-yl)oxy)benzylidene)amino)oxy)methyl)-2-phenylimidazo[1,2-a]pyridin-3-yl)amino)benzoic acid], on TDP2 (setting [4]), the IC50 is more than 100 µM. Take `O=C(O)c1ccc(Nc2c(-c3ccc(C(=O)O)cc3)nc3ccccn23)cc1` [Compound 8h, 4-(3-((4-Carboxyphenyl)amino)imidazo[1,2-a]pyridin-2-yl)benzoic acid]: the IC50 at TDP1 (setting [3]) is more than 100 µM. Same read-out and setting: under `O=C(O)c1ccc2nc(-c3ccccc3)c(Nc3ccc([N+](=O)[O-])cc3)n2c1` [Compound 8l, 3-((4-Nitrophenyl)amino)-2-phenylimidazo[1,2-a]pyridine-6-carboxylic acid] stands 22 µM.

In the case of `COc1ccccc1Nc1c(-c2ccc(C(=O)O)cc2)nc2cnccn12` [Compound 7g], the IC50 at TDP1 (setting [1]) worked out at 2300 µM.

For the compound `Cc1ccc(-c2nc3ccccn3c2Nc2ccc(C(=O)O)cc2)cc1` [Compound 8b, 4-((2-(p-Tolyl)imidazo[1,2-a]pyridin-3-yl)amino)benzoic acid], the IC50 at TDP1 (setting [3]) worked out at 14.8 µM.

In the case of `O=C(O)c1cccc(Nc2c(-c3ccc(O)cc3)nc3cnccn23)c1` [Compound 7o], the IC50 at TDP1 (setting [1]) was found to be 216 µM. The same measure, in the same setting: under `O=C(O)c1ccc(Nc2c(-c3cccc(O)c3)nc3cnccn23)cc1` [Compound 7d] stands 127 µM.

Turning to `O=C(O)c1ccc(Nc2c(-c3ccc([N+](=O)[O-])cc3)nc3ccccn23)cc1` [Compound 8e, 4-((2-(4-Nitrophenyl)imidazo[1,2-a]pyridin-3-yl)amino)benzoic acid], the IC50 at TDP1 (setting [3]) stood at 3.2 µM. In the case of `O=C(O)c1ccc(Nc2c(-c3ccc(Cl)cc3)nc3cnccn23)cc1` [Compound 7w], the half-inhibitory concentration (IC50) on TDP1 (setting [1]) is more than 1000 µM.

Consider `O=C(O)c1ccc(-c2nc3cnccn3c2Nc2cccc(C(=O)O)c2)cc1` [Compound 7′t, 3-((2-(4-Carboxyphenyl)imidazo[1,2-a]pyrazin-3-yl)amino)benzoic acid], for which, on TDP1 (setting [1]), the IC50 is more than 1000 µM.

For the compound `O=C(O)c1ccc(Nc2c(-c3cccc(Br)c3)nc3cnccn23)cc1` [Compound 7y], the concentration for half-maximal inhibition (IC50) on TDP1 (setting [1]) is more than 1000 µM. Still for that read-out and setting: under `CNC(=O)c1ccc(Nc2c(-c3ccccc3)nc3cnccn23)cc1` [Compound 7i] stands more than 1000 µM.

For the compound `O=C(O)c1ccc(Nc2c(-c3ccccc3C(=O)O)nc3ccc(C(=O)O)cn23)cc1` [Compound 8j, 2-(2-Carboxyphenyl)-3-((4-carboxyphenyl)amino)imidazo[1,2-a]pyridine-6-carboxylic acid], the IC50 at TDP1 (setting [3]) is more than 100 µM. The same measure, in the same setting: under `O=C(O)c1ccc(Nc2c(-c3ccc(S(=O)(=O)O)cc3)nc3ccccn23)cc1` [Compound 8g, 4-((2-(4-Sulfophenyl)imidazo[1,2-a]pyridin-3-yl)amino)benzoic acid] stands more than 100 µM.

The values are drawn from patent US20250011330A1, “Imidazo[1,2- a]pyrazine and Imidazo[1,2- a]pyridine Based Tyrosyl-DNA Phosphodiesterase I (TDP1) Inhibitors” (The USA, As Represented by the Secretary, Department of …, priority 2021, published 2025).
